Experimental data: patent US11925646B2, “Agent for treating or preventing cancer, and combination of RF pathway inhibitor and MEK inhibitor for treating or preventing cancer” (NATIONAL UNIVERSITY CORPORATION HOKKAIDO UNIVERSITY, priority 2021, dated 2024)

What was measured:
4-hit flies (non-GFP) = assay: Survival rate of 4-hit flies raised on agent diet; assay type: in vivo, Drosophila; details: in diet: 0.5 μM trametinib, 50 μM roseoflavin; raised at 25° C. for 13 days
Protocol: Roseoflavin and trametinib were dissolved in DMSO (Sigma) to be stored at −20° C.
Agar (Wako), brewers' yeast (MPBio), yeast extract (Sigma Aldrich), Bacto Casitone (BD), sucrose (Wako), glucose (Wako), MgCl2 (Wako), CaCl2) (Wako), propionic acid (Wako), Mold Inhibitor (10% methyl-4-hydroxy benzoate in 95% ethanol: Wako) were dissolved in ultrapure water to produce a standard diet. While this was being warmed at 50° C., an agent (trametinib alone, or a combination of roseoflavin and trametinib) dissolved in DMSO was added thereto to be mixed, and the resultant was cooled to prepare an agent diet. Final concentrations in the diet of the respective compounds were set to 0.5 μM for trametinib, and 50 μM for roseoflavin.
The UAS-RasG12D, UAS-p53 shRNA, UAS-CycE, UAS-Med shRNA fly produced in Example 1 was crossbred with a Ser-gal4 fly (Bloomington Drosophila Stock Center), and the parent flies were caused to lay eggs for 2 days on the standard diet or the agent diet, and thus, 20 to 50 eggs per vial, of Ser-gal4; UAS-RasG12D, UAS-p53 shRNA, UAS-CycE, UAS-Med shRNA 4-hit flies (non-GFP) were obtained. These eggs were raised at 25° C. for 13 days, and survival rate of the 4-hit flies (non-GFP) raised on each diet was calculated by dividing the number of eclosed individuals by the total number of pupae.

Capan-1 [1] = assay: Spheroid formation in three-dimensional methylcellulose culture; assay type: cell-based, human; details: 10 μM RoF, 1 nM Tr, day 21 of culture
Protocol: (§1) The pancreatic cancer cell lines (AsPC-1 and Capan-1) having 4-hit mutation were three-dimensionally cultured in methylcellulose-containing media.
(§2) In a 24 well plate (upper layer: 1.8% methylcellulose, lower layer: 0.48% agarose), AsPC-1 was seeded at 5×10^3 cells/well (in 100 μL of the medium). After culturing for 1 day (day 1), DMSO (control), 10 μM roseoflavin (RoF), 1 nM trametinib (Tr), or 10 μM RoF+1 nM Tr was respectively added to the 24 well plate (final concentration of DMSO: 0.1%). After adding the agent solution, the resultant was cultured in the presence of 5% CO2 at 37° C., and a culture fluid was added on day 14. The resultant was further cultured, and each group was photographed on day 21 to measure the size and the number of spheroids. It is noted that the following media were used for culturing the respective cell lines: • AsPC-1: RPMI 1640 medium (Nakalai Tesque) supplemented with 10% fetal bovine serum (Gibco) and 1% penicillin-streptomycin (Nakalai Tesque) • Capan-1: IMDM medium (Iscove's Modified Dulbecco's Medium) (Nakalai Tesque) supplemented with 20% fetal bovine serum (Gibco) and 1% penicillin-streptomycin (Nakalai Tesque)

AsPC-1 = assay: as above; assay type: cell-based, human; details: 10 μM RoF, 1 nM Tr, day 21 of culture
Protocol: as §1, §2

MIAPaCa-2 = assay: MTS assay, relative survival rate with roseoflavin; assay type: cell-based, human; details: RoF 0.1 to 10 μM, 24, 48 or 72 hours, ratio to solvent control at 72 hours
Protocol: (§3) Human pancreatic cancer cells were treated with roseoflavin (RoF), and a relative survival rate was calculated assuming that mitochondrial respiratory chain activity corresponded to the survival rate.
(§4) Human pancreatic cancer cell lines, MIAPaCa-2, PANC-1, and Capan-1 were used for performing MTS assay with RoF. All the cell lines were obtained from ATCC. Each of the cell lines was cultured with the following medium in the presence of 5% CO2 at 37° C. • MIAPaCa-2: Dulbecco's Modified Eagle's Medium (Nakalai Tesque) supplemented with 10% fetal bovine serum (Gibco) and 1% penicillin-streptomycin (Nakalai Tesque) • PANC-1: RPMI 1640 medium (Nakalai Tesque) supplemented with 10% fetal bovine serum (Gibco) and 1% penicillin-streptomycin (Nakalai Tesque) • Capan-1: IMDM medium (Iscove's Modified Dulbecco's Medium) (Nakalai Tesque) supplemented with 20% fetal bovine serum (Gibco) and 1% penicillin-streptomycin (Nakalai Tesque)
(§5) Roseoflavin (RoF) was prepared to 0 μM (DMSO alone), 0.1 mM, 0.3 mM, 1 mM, 3 mM, and 10 mM, and the resultants were respectively diluted with the medium by 1000 times to obtain agent solutions (RoF final concentration: 0 μM, 0.1 μM, 0.3 μM, 1 μM, 3 μM and […]).
(§6) In a 96 well plate, MIAPaCa-2 was seeded at 500 cells/well, PANC-1 was seeded at 2,000 cells/well, and Capan-1 was seeded at 10,000 cells/well (in 100 μL of the medium). After these were cultured for 1 day, the RoF agent solution at each concentration was added to the cells in the 96 well plate in an amount of 10 μL each (final concentration of DMSO: 0.1%). Each combination was tested in 3 wells. After the addition of the agent solution, the resultant was cultured in the presence of 5% CO2 at 37° C. for 24, 48 or 72 hours, and a cell survival rate was measured with MTS Assay (Cell Titer 96®, Promega). The survival rate was expressed as a ratio to that of the control (solvent alone) cultured for 72 hours.

PANC-1 = assay: MTS assay, relative survival rate with roseoflavin; assay type: cell-based, human; details: RoF 0.1 to 10 μM, 24, 48 or 72 hours, ratio to solvent control at 72 hours
Protocol: as §3, §4, §5, §6

Capan-1 [2] = assay: MTS assay, relative survival rate with roseoflavin; assay type: cell-based, human; details: RoF 0.1 to 10 μM, 24, 48 or 72 hours, ratio to solvent control at 72 hours
Protocol: as §3, §4, §5, §6

RF pathway = assay: Liquid chromatography mass spectrometry of RoF, RF, FMN and FAD within the cells; assay type: cell-based, human; details: MIAPaCa-2, PANC-1 and Capan-1; 10 μM RoF, 48 hours; vs DMSO control

SMILES | improvement of survival rate of 4-hit flies (eclosed individuals / total pupae) (4-hit flies (non-GFP)) | number of spheroids of 0.1 mm or smaller (Capan-1 [1]) | spheroid formation, spheroids of 0.1 to 0.2 mm and larger than 0.2 mm (Capan-1 [1]) | spheroid formation, spheroids of 0.1 to 0.2 mm and larger than 0.2 mm (AsPC-1) | relative survival rate (mitochondrial respiratory chain activity) (MIAPaCa-2) | relative survival rate (mitochondrial respiratory chain activity) (PANC-1) | relative survival rate (mitochondrial respiratory chain activity) (Capan-1 [2]) | amount of FAD (flavin adenine dinucleotide) within the cells (RF pathway) | amount of FMN (flavin mononucleotide) within the cells (RF pathway) | amount of RF (riboflavin) within the cells (RF pathway)
CC(=O)Nc1cccc(-n2c(=O)n(C3CC3)c(=O)c3c(Nc4ccc(I)cc4F)n(C)c(=O)c(C)c32)c1 [trametinib] | about 10% | – | – | – | – | – | – | – | – | –
Cc1cc2nc3c(=O)[nH]c(=O)nc-3n(C[C@H](O)[C@H](O)[C@H](O)CO)c2cc1N(C)C [roseoflavin] | – | increased | spheroid formation was suppressed | spheroid formation was suppressed | deteriorated mitochondrial respiratory chain activity in a dose dependent manner to decrease the relative survival rate | deteriorated mitochondrial respiratory chain activity in a dose dependent manner to decrease the relative survival rate | deteriorated mitochondrial respiratory chain activity in a dose dependent manner to decrease the relative survival rate | smaller than those in the control | smaller than those in the control | smaller than those in the control
